Laboratory results from patent US20210317090A1, “AMINO ACID DEPLETION AGENTS AS ANTIPROLIFERATIVE AGENTS” (University of Central Florida Research Foundation, Inc., priority 2018, published 2021).
Like-named read-outs stand apart in the source and are kept apart here.

Experiments:
[1] = system: CHO K1 cells; assay: cells; format: cell-based, Chinese hamster; details: for EC50: Cricetulus griseus, Ant-44 0.5 μM
Description: Various embodiments involve the concept that a non-toxic PTI agent would inhibit the uptake of the cytotoxic polyamine conjugate Ant-44 (11) and rescue cells from Ant-44 induced toxicity. For example, using the IC50 dose of Ant-44, PTIs could be identified by measuring a compound's ability to block Ant-44 entry and rescue cells back to >90% viability. […] This toxic dose of Ant-44 was kept constant throughout the assay, while the candidate PTI compound was added in increasing concentrations up to its MTD.
Compounds (9 and 10) were tested at 5 μM and 7 μM. CHO K1 cells were treated in a 96-well plate with a toxic dose of Ant-44 (2.4 μM) alone and dosed with the candidate compounds (at 5 μM and 7 μM) and incubated for 48 h at 37° C.
To further explore this effect, development of various embodiments included modifying an original screen to use a lower dose of Ant-44 (0.5 μM) to improve the dose range of 9 and 10 that could be tested. In this regard, Ant-44 was dosed at 0.5 μM alone and in combination with increasing doses of compounds 9 (1666.177) and 10 (1666.255) and the CHO K1 cells were incubated for 48 h at 37° C., and the results are shown in FIG. 5. The red line represents the % cell viability of the Ant-44 only control. The Ant44 potentiation assay EC50 value is defined as the concentration of the candidate compound required to decrease the cell viability to half that of the Ant-44 only control. Both compounds 9 and 10 were effective at decreasing cell viability, when used in combination with Ant-44 in a dose dependent fashion.
FIG. 5 is an example according to various embodiments, illustrating potentiation of Ant-44 toxicity by compounds 9 and 10 in CHO K1 cells. Cells were incubated for 48 h at 37° C. with the respective compound and a fixed concentration of cytotoxic Ant-44 (0.5 μM). A 1 mM AG solution was incubated with the CHO K1 cells for 24 h prior to the addition of candidate compound. This was necessary to protect Ant-44 from the amine oxidases present in the media containing fetal bovine serum. […] Both compounds are nontoxic at the highest concentration tested (5 μM).

[2] = system: L3.6pl cells; assay: Attached cell count (hemocytometer) after 72 h; format: cell-based, human
Description: In parallel with the above experiments, a dose dependence experiment was performed looking at how compound 10 at 0, 2, 5 and 7 μM affected L3.6pl cell attachment and cell number after 72 h incubation at 37° C. Successively more detached cells were observed as the concentration of compound 10 increased, particularly from 5 μM to 7 μM.
Cells were incubated with compound 10 for 72 h at 37° C. A 250 μM AG solution was incubated with the cells for 24 h prior to compound addition. Each condition was performed in duplicate.
This example illustrates aspects according to various embodiments pertaining to a 72 h experiment with Compound 10 in L3.6pl cells. Ten milliliters of a cell suspension containing L3.6pl human pancreatic cancer cells (50,000 cells/mL) and aminoguanidine ([…]) were placed in treated plastic Petri dishes (d=9 cm) and incubated overnight at 37° C. After 24 h, the cells were dosed with compound 10 at 2 μM, 5 μM, or 7 μM. (Note: Stock solutions of 10 at 2, 5, and 7 mM were dissolved in phosphate buffered saline (PBS) and were filtered through a 0.2 μm filter prior to use. The experiments were maintained with a total volume of 10.01 mL where 10 mL of the cell suspension was placed in a plastic dish and each compound or the equivalent PBS volume was added to make up the total volume 10.01 mL for each dish. For example, for the control experiment PBS (10 μL) was added to make up the total volume (10 mL+10 μL=10.01 mL). After 72 h incubation, the cells were collected first by pipetting off the supernatant containing floating dead cells from the culture dish as well as media and placing them into 15 mL tubes. The supernatant containing floating cells was centrifuged (4 min at 1,000 rpm). The cell-free supernatant (supernatant #1) was collected into a new 15 mL tube and quantified (˜8.6 mL) and was then stored frozen and was later quantified by LCMS to investigate the media composition of particular polyamine and amino acid analytes. The attached cells on the dish were washed with PBS (5 mL). The PBS wash was removed by suction and additional PBS (2 mL) was added and again suctioned off to provide twice-washed cells still adhered to the dish. Trypsin (2 mL) was then added to each dish and incubated (3-5 min) until all the cells were detached. Fresh media (8 mL) was added to quench the trypsin. The cell solutions were pipetted into separate 15 mL tubes and centrifuged (4 min at 1,000 rpm). The resulting supernatant was removed to provide a pellet. The pellet was suspended in PBS (10 mL) and was counted by a hemocytometer to provide cell counts for each experimental condition. The pellet was then centrifuged (4 min at 1,000 rpm) and the supernatant removed and the remaining pellet was quantified via protein and polyamine analysis.

[3] = system: CHO-MG cells; assay: Rescue by exogenous native polyamines in CHO-MG cells; format: cell-based, Chinese hamster; details: toxic concentration of compound 10 (results not shown)
[4] = system: L3.6pl cells; assay: Intracellular polyamine and Ant-44 levels (N-dansylation, HPLC) in L3.6pl cells; format: cell-based, human; details: 3.3 μM compound 10 (SR isomer), FIG. 10I

Q: For `CC(C)CCN1CCN(C(CNCc2ccccc2)CC2CCCCC2)CC1CC(C)C.Cl.Cl.Cl` (stereo not shown) [Compound 10, Benzyl-{3-cyclohexyl-2-[3-isobutyl-4-(3-methyl-butyl)-piperazin-1-yl]-propyl}-amine trihydrochloride salt], which “times more effective at potentiating Ant-44 than compound 9” value ([1]; CHO K1 cells) is on record?
A: The value was “approximately 12.5 times”.

Q: What about the EC50 ([1]; CHO K1 cells, 48 h (FIG. 5), read-out: Ant-44 potentiation EC50) of the same molecule?
A: The EC50 was 60 nM.

Q: And the EC50 ([1]; CHO cells, 48 h, read-out: Ant44 potentiation assay EC50)?
A: Its EC50 is 60 nM.

Q: What about the “Cell Count” value ([2]; 2 μM) of the same molecule?
A: Its value is 9.40 millions.

Q: And the “Cell Count” value ([2]; 5 μM)?
A: Its value is 4.35 millions.

Q: And the “loss of the attached cell population” value ([2]; 5 μM)?
A: Its value is 58%.

Q: And the “Cell Count” value ([2]; 7 μM)?
A: The value was 2.10 millions.

Q: What about the “loss of the attached cell population” value ([2]; 7 μM) of the same molecule?
A: Its value is 80%.

Q: And the “rescue of treated cells by native polyamines” value [3]?
A: Its value is “unable to rescue”.

Q: And the “intracellular levels of polyamine metabolites” value [4]?
A: The value was “lower levels of polyamines and N-acetylspermine”.
